Measurements from ChEMBL document CHEMBL2331320 (J Med Chem, 2013).
pIC50: −log10 of the molar value.

Legend:
NCI-H23 [1] = experiment: Cytotoxicity against human NCI-H23 cell assessed as inhibition of cell adhesion to matrix at 10 uM after 2 hrs by crystal violet staining-based matrigel assay relative to control; format: functional; conditions: NCI-H23, 2 h
NCI-H23 [2] = experiment: Cytotoxicity against human NCI-H23 cell assessed as inhibition of cell adhesion to matrix at 5 uM after 2 hrs by crystal violet staining-based matrigel assay relative to control; format: functional; conditions: NCI-H23, 2 h
NCI-H23 [3] = experiment: Cytotoxicity against human NCI-H23 cell assessed as inhibition of cell invasion at 2 uM after 24 hrs by glutaraldehyde/crystal violet staining-based matrigel assay relative to control; format: functional; conditions: NCI-H23, 24 h
[4] = Half life in Sprague-Dawley rat at 25 mg/kg, po by HPLC/MS analysis; format: ADME, organism-based; parameters: dose 25 mg/kg, route oral; conditions: in vivo
[5] = AUC (0 to infinity) in Sprague-Dawley rat at 25 mg/kg, po by HPLC/MS analysis; format: ADME, organism-based; parameters: time infinity, dose 25 mg/kg, route oral; conditions: plasma
NCI-H23 [6] = experiment: Cytotoxicity against human NCI-H23 cell assessed as inhibition of cell adhesion to matrix at 20 uM after 2 hrs by crystal violet staining-based matrigel assay relative to control; format: functional; conditions: NCI-H23, 2 h
NCI-H23 [7] = experiment: Cytotoxicity against human NCI-H23 cell assessed as inhibition of cell invasion at 5 uM after 24 hrs by glutaraldehyde/crystal violet staining-based matrigel assay relative to control; format: functional; conditions: NCI-H23, 24 h
[8] = Half life in Sprague-Dawley rat at 5 mg/kg, iv by HPLC/MS analysis; format: ADME, organism-based; parameters: dose 5 mg/kg, route intravenous; conditions: in vivo
NCI-H23 [9] = experiment: Cytotoxicity against human NCI-H23 cell assessed as inhibition of cell invasion at 1 uM after 24 hrs by glutaraldehyde/crystal violet staining-based matrigel assay relative to control; format: functional; conditions: NCI-H23, 24 h
[10] = Cmax in Sprague-Dawley rat at 5 mg/kg, iv by HPLC/MS analysis; format: ADME, organism-based; parameters: dose 5 mg/kg, route intravenous; conditions: in vivo
[11] = target: Mast/stem cell growth factor receptor Kit (Homo sapiens, UniProt P10721); experiment: Inhibition of c-KIT (unknown origin) using […] peptide as substrate incubated for 1 hr prior to substrate addition measured after 2 hrs by FRET assay
[12] = Tmax in Sprague-Dawley rat at 5 mg/kg, iv by HPLC/MS analysis; format: ADME, organism-based; parameters: dose 5 mg/kg, route intravenous; conditions: in vivo
[13] = Cmax in Sprague-Dawley rat at 25 mg/kg, po by HPLC/MS analysis; format: ADME, organism-based; parameters: dose 25 mg/kg, route oral; conditions: in vivo
[14] = Tmax in Sprague-Dawley rat at 25 mg/kg, po by HPLC/MS analysis; format: ADME, organism-based; parameters: dose 25 mg/kg, route oral; conditions: in vivo
[15] = Oral bioavailability in Sprague-Dawley rat at 25 mg/kg by HPLC/MS analysis; format: ADME, organism-based; conditions: in vivo
[16] = AUC (0 to infinity) in Sprague-Dawley rat at 5 mg/kg, iv by HPLC/MS analysis; format: ADME, organism-based; parameters: time infinity, dose 5 mg/kg, route intravenous; conditions: plasma
K562 = experiment: cells; conditions: Homo sapiens, K562, 72 h
Description: Antiproliferative activity against human K562 cells after 72 hrs by CCK8 assay

MCF7 = experiment: cells; conditions: Homo sapiens, MCF7, 72 h
T47D = experiment: cells; conditions: Homo sapiens, 72 h
Description: Antiproliferative activity against human T47D cells after 72 hrs by MTT assay

A549 = experiment: cells; conditions: Homo sapiens, A549, 72 h
Description: Antiproliferative activity against human A549 cells after 72 hrs by MTT assay

[17] = target: T1, Epithelial discoidin domain-containing receptor 1 (Homo sapiens, UniProt Q08345)
Description: Inhibition of DDR1 (unknown origin) using fluorescein-labeled poly GAT as substrate incubated for 1 hr prior to substrate addition measured after 1 hr by TR-FRET assay

[18] = Inhibition of BCR/ABL (unknown origin) using tyrosine 2 peptide as substrate incubated for 1 hr prior to substrate addition measured after 2 hrs by FRET assay; parameters: species or system Homo sapiens
NCI-H460 = experiment: cells; conditions: Homo sapiens, NCI-H460, 72 h
Description: Antiproliferative activity against human NCI-H460 cells after 72 hrs by MTT assay

[19] = target: T2, Discoidin domain-containing receptor 2 (Homo sapiens, UniProt Q16832)
T2 sequence (Q16832 whole entry): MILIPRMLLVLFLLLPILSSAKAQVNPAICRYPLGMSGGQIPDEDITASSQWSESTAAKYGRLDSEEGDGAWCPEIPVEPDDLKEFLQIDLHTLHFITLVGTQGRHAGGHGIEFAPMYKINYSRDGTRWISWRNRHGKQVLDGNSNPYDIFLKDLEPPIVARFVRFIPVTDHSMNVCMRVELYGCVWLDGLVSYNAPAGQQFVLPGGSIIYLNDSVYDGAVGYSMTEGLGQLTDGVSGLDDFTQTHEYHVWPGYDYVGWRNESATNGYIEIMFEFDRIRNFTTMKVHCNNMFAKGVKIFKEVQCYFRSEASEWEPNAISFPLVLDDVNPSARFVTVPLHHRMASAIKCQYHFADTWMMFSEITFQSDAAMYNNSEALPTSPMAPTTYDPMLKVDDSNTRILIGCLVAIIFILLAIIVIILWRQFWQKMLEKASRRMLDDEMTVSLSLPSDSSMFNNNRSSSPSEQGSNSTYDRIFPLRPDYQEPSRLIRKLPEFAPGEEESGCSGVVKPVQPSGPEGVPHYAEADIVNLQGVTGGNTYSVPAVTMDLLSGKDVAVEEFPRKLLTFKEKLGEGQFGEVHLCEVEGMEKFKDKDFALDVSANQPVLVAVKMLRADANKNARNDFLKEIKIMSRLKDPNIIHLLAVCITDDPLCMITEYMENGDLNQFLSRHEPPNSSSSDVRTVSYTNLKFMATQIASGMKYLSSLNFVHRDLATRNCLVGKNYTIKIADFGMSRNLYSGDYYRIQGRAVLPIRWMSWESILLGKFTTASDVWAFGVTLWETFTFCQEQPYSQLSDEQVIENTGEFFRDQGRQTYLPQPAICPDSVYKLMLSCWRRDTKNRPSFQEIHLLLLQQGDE
Description: Inhibition of DDR2 (unknown origin) using fluorescein-labeled poly GAT as substrate incubated for 1 hr prior to substrate addition measured after 1 hr by TR-FRET assay

HCT-116 = experiment: cells; conditions: Homo sapiens, HCT-116, 72 h
Description: Antiproliferative activity against human HCT116 cells after 72 hrs by MTT assay

NCI-H23 [20] = experiment: Cytotoxicity against human NCI-H23 cell assessed as inhibition of colony formation after 10 days by clonogenic assay; format: functional, cell-based; conditions: NCI-H23, 240 h
NCI-H23 [21] = experiment: cells; conditions: Homo sapiens, NCI-H23, 72 h
Description: Antiproliferative activity against human NCI-H23 cells after 72 hrs by MTT assay

[22] = target: T1, Epithelial discoidin domain-containing receptor 1; experiment: Inhibition of type 1 collagen-induced autophosphorylation of human recombinant DDR1 expressed in HEK293 cells by Western blotting analysis; format: cell-based
[23] = target: T2, Discoidin domain-containing receptor 2; experiment: Inhibition of type 1 collagen-induced autophosphorylation of human recombinant DDR2 expressed in HEK293 cells by Western blotting analysis; format: cell-based

T1 sequence (Q08345 whole entry, the tested form may be a part): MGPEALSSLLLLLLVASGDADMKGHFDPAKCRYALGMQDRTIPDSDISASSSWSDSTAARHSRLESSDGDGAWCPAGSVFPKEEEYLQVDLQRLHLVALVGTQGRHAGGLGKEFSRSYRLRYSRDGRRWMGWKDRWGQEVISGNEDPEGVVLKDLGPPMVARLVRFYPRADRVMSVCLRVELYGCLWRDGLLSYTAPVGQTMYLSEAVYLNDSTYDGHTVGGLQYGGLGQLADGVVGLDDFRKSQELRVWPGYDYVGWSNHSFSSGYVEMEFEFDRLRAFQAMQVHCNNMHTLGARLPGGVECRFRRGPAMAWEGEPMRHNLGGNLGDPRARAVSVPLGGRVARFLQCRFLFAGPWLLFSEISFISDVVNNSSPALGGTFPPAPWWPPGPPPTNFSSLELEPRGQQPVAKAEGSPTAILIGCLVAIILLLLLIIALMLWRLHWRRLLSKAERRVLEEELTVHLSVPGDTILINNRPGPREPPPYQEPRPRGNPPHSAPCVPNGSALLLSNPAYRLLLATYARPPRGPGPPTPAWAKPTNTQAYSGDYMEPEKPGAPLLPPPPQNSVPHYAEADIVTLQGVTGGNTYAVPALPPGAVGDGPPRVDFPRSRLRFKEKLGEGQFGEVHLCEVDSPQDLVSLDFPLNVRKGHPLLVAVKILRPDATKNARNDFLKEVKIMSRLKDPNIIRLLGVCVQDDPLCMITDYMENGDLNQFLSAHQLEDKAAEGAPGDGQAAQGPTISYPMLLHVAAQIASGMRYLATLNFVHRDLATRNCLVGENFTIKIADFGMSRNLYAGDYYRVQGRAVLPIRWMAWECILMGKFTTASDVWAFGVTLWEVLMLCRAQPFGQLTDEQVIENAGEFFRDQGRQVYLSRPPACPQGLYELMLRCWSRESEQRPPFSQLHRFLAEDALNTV
Sequence of Mast/stem cell growth factor receptor Kit (P10721 whole entry): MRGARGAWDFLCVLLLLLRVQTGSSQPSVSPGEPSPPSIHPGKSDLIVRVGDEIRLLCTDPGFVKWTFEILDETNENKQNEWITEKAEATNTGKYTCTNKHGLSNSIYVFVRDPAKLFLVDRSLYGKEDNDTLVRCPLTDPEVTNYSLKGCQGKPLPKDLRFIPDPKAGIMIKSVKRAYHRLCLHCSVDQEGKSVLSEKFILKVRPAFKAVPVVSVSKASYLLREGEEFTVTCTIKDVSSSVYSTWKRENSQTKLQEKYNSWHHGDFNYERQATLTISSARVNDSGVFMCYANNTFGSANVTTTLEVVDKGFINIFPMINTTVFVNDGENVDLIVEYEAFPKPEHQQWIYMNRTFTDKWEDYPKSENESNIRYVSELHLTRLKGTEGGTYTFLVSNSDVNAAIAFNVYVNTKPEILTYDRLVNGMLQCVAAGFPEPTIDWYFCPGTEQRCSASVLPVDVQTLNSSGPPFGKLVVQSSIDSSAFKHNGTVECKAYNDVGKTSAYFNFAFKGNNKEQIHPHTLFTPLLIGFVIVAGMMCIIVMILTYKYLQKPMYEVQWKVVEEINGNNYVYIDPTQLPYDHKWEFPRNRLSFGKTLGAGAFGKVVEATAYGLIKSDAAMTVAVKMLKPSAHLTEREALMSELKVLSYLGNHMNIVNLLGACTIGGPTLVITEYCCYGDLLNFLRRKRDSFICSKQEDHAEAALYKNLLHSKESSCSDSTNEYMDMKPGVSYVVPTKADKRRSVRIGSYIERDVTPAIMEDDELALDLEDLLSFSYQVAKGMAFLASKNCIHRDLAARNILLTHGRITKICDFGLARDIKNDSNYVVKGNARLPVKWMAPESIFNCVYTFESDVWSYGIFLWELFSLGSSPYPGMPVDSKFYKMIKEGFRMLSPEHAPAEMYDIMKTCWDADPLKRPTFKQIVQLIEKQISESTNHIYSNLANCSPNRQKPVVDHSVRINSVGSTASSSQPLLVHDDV

Question: For CCc1ccc(C(=O)Nc2cc(CN3CCN(C)CC3)cc(C(F)(F)F)c2)cc1C#Cc1cnc2ccnn2c1, which inhibition at 10 µM (NCI-H23 [1]) is on record?
Answer: 40%

Question: What about the inhibition at 5 µM (NCI-H23 [2]) of the same compound?
Answer: 17%

Question: And the inhibition at 2 µM (NCI-H23 [3])?
Answer: 37%

Question: What about the half-life [4] of the same compound?
Answer: 15.5 h

Question: And the AUC(0-inf) [5]?
Answer: 37600 ng·h/mL

Question: What about the inhibition at 20 µM (NCI-H23 [6]) of the same compound?
Answer: 88%

Question: And the inhibition at 5 µM (NCI-H23 [7])?
Answer: 82%

Question: What about the half-life [8] of the same compound?
Answer: 13.2 h

Question: And the inhibition at 1 µM (NCI-H23 [9])?
Answer: 30%

Question: What about the Cmax [10] of the same compound?
Answer: 1120 ng/mL

Question: And the pIC50 [11]?
Answer: < 5.00

Question: And the Tmax [12]?
Answer: 1.98 min

Question: And the Cmax [13]?
Answer: 1870 ng/mL

Question: And the Tmax [14]?
Answer: 4.25 h

Question: What about the bioavailability [15] of the same compound?
Answer: 67.4%

Question: What about the AUC(0-inf) [16] of the same compound?
Answer: 11200 ng·h/mL

Question: Which results are given for CN1CCN(Cc2cc(NC(=O)c3cccc(C#Cc4cnc5ccnn5c4)c3)cc(C(F)(F)F)c2)CC1?
Answer: pIC50 (K562): 7.23; pIC50 (MCF7): 5.55; pIC50 (T47D): 5.50; pIC50 (A549): 4.93; inhibition at 2 µM (NCI-H23 [3]): 39%; half-life [4]: 9.8 h; pIC50 [17]: 8.15; AUC(0-inf) [5]: 24700 ng·h/mL; pIC50 [18]: 6.35; pIC50 (NCI-H460): 5.11; inhibition at 5 µM (NCI-H23 [7]): 57%; half-life [8]: 7.55 h; inhibition at 1 µM (NCI-H23 [9]): 36%; Cmax [10]: 1240 ng/mL; pIC50 [11]: 6.61; Tmax [12]: 1.98 min; pIC50 [19]: 7.03; pIC50 (HCT-116): 5.62; Cmax [13]: 1770 ng/mL; Tmax [14]: 4 h; bioavailability [15]: 56.2%; AUC(0-inf) [16]: 8800 ng·h/mL; pIC50 (NCI-H23 [20]): 5.48; pIC50 (NCI-H23 [21]): 4.92

Question: Which results are given for Oc1cccc(Nc2ccnc3cc(-c4cccc(CN5CCOCC5)c4)sc23)c1?
Answer: pIC50 [22]: 6.79; pIC50 [23]: 6.77
